Results published in patent US10556874B2, “N-(1,3,4-oxadiazol-2-yl)aryl carboxamide derivatives with herbicidal action” (Bayer CropScience Aktiengesellschaft, priority 2015, dated 2020).

Columns and labels:
Assay type in all cases: in vivo
[1] = tested on: Stellaria media; assay: Pre-emergence herbicidal action against harmful plants; settings: 504 h, application rate 320 g/ha, scored visually after 3 weeks vs untreated controls, read-out: herbicidal activity in percent
Description: (§1) 1. Pre-Emergence Herbicidal Action Against Harmful Plants
(§2) Seeds of monocotyledonous and dicotyledonous weed plants and crop plants are laid out in wood-fiber pots in sandy loam and covered with soil. The compounds of the invention, formulated in the form of wettable powders (WP) or as emulsion concentrates (EC), are then applied to the surface of the covering soil in the form of an aqueous suspension or emulsion at a water application rate equating to 600 to 800 l/ha, with addition of 0.2% wetting agent. After the treatment, the pots are placed in a greenhouse and kept under good growth conditions for the trial plants. The damage to the test plants is scored visually after a test period of 3 weeks by comparison with untreated controls (herbicidal activity in percent (%): 100% activity=the plants have died, 0% activity=like control plants). Here, for example, the compounds Nos. 1-145, 1-385, 3-385, 4-145, 4-385, 6-385, 7-145, 7-385 and 9-385, at an application rate of 320 g/ha, each show an activity of at least 80% against Stellaria media and Veronica persica.

[2] = tested on: Veronica persica; assay: as above; settings: 504 h, application rate 320 g/ha, scored visually after 3 weeks vs untreated controls, read-out: herbicidal activity in percent
Description: as §1, §2

[3] = tested on: Amaranthus retroflexus; assay: Post-emergence herbicidal action against harmful plants; settings: 504 h, application rate 80 g/ha, assessed visually after about 3 weeks vs untreated controls, read-out: herbicidal action in percent
Description: (§3) 2. Post-Emergence Herbicidal Action Against Harmful Plants
(§4) Seeds of monocotyledonous and dicotyledonous weed and crop plants are laid out in sandy loam soil in wood-fiber pots, covered with soil and cultivated in a greenhouse under good growth conditions. 2 to 3 weeks after sowing, the test plants are treated at the one-leaf stage. The compounds of the invention, formulated in the form of wettable powders (WP) or as emulsion concentrates (EC), are then sprayed onto the green parts of the plants in the form of an aqueous suspension or emulsion at a water application rate equating to 600 to 800 l/ha, with addition of 0.2% wetting agent. After the test plants have been left to stand in the greenhouse under optimal growth conditions for about 3 weeks, the action of the preparations is assessed visually in comparison to untreated controls (herbicidal action in percent (%): 100% activity=the plants have died, 0% activity=like control plants). Here, for example, the compounds Nos. 1-145, 1-385, 3-385, 4-145, 4-385, 6-385, 7-145, 7-385 and 9-385, at an application rate of 80 g/ha, each show an activity of at least 80% against Stellaria media and Amaranthus retroflexus.

[4] = tested on: Stellaria media; assay: as above; settings: 504 h, application rate 80 g/ha, assessed visually after about 3 weeks vs untreated controls, read-out: herbicidal action in percent
Description: as §3, §4

[5] = tested on: Alopecurus myosuroides (ALOMY); assay: Comparative experiment in pre-emergence; settings: dosage 80 g/ha, 100% = plants have died, 0% = like control plants
Description: as §2
3. Comparative Experiment in Pre-Emergence
For comparative purposes, the herbicidal activity of some compounds according to the invention and the most structurally similar compounds known from the prior art were tested.

CCOC(=O)OC(C)N(C(=O)c1ccc(C(F)(F)F)c(S(C)(=O)=O)c1C)c1nnc(C)o1 (stereo not shown) [Compound No. 1-145, ethyl 1-{[2-methyl-3-(methylsulfonyl)-4-(trifluoromethyl)benzoyl](5-methyl-1,3,4-oxadiazol-2-yl)amino}ethyl carbonate]
≥ 80%: pest or weed control at 320 g/ha [1] | pest or weed control at 320 g/ha [2] | pest or weed control at 80 g/ha [3] | pest or weed control at 80 g/ha [4]
100%: Herbicidal activity against ALOMY [5]

CCOC(=O)OC(C)N(C(=O)c1ccc(C(F)(F)F)c([S+](C)[O-])c1Cl)c1nnc(C)o1 (stereo not shown) [Compound No. 1-385, 1-{[2-chloro-3-(methylsulfinyl)-4-(trifluoromethyl)benzoyl](5-methyl-1,3,4-oxadiazol-2-yl)amino}ethyl ethyl carbonate]
≥ 80%: pest or weed control at 320 g/ha [1] | pest or weed control at 320 g/ha [2] | pest or weed control at 80 g/ha [3] | pest or weed control at 80 g/ha [4]

Cc1nnc(N(C(=O)c2ccc(C(F)(F)F)c([S+](C)[O-])c2Cl)C(C)OC(=O)OC2CCCCC2)o1 (stereo not shown) [Compound No. 3-385, 1-{[2-chloro-3-(methylsulfinyl)-4-(trifluoromethyl)benzoyl](5-methyl-1,3,4-oxadiazol-2-yl)amino}ethyl cyclohexyl carbonate]
≥ 80%: pest or weed control at 320 g/ha [1] | pest or weed control at 320 g/ha [2] | pest or weed control at 80 g/ha [3] | pest or weed control at 80 g/ha [4]
100%: Herbicidal activity against ALOMY [5]

CCOC(=O)OC(C)n1nc(C)oc1=NC(=O)c1ccc(C(F)(F)F)c(S(C)(=O)=O)c1C (stereo not shown) [Compound No. 4-145, ethyl 1-[5-methyl-2-{[2-methyl-3-(methylsulfonyl)-4-(trifluoromethyl)benzoyl]imino}-1,3,4-oxadiazol-3(2H)-yl]ethyl carbonate]
≥ 80%: pest or weed control at 320 g/ha [1] | pest or weed control at 320 g/ha [2] | pest or weed control at 80 g/ha [3] | pest or weed control at 80 g/ha [4]

CCOC(=O)OC(C)n1nc(C)oc1=NC(=O)c1ccc(C(F)(F)F)c([S+](C)[O-])c1Cl (stereo not shown) [Compound No. 4-385, ethyl 1-[5-methyl-2-{[2-chloro-3-(methylsulfinyl)-4-(trifluoromethyl)benzoyl]imino}-1,3,4-oxadiazol-3(2H)-yl]ethyl carbonate]
≥ 80%: pest or weed control at 320 g/ha [1] | pest or weed control at 320 g/ha [2] | pest or weed control at 80 g/ha [3] | pest or weed control at 80 g/ha [4]

Cc1nn(C(C)OC(=O)OC2CCCCC2)c(=NC(=O)c2ccc(C(F)(F)F)c([S+](C)[O-])c2Cl)o1 (stereo not shown) [Compound No. 6-385, 1-[2-{[2-chloro-3-(methylsulfinyl)-4-(trifluoromethyl)benzoyl]imino}-5-methyl-1,3,4-oxadiazol-3(2H)-yl]ethyl cyclohexyl carbonate]
≥ 80%: pest or weed control at 320 g/ha [1] | pest or weed control at 320 g/ha [2] | pest or weed control at 80 g/ha [3] | pest or weed control at 80 g/ha [4]

CCOC(=O)OC(C)OC(=Nc1nnc(C)o1)c1ccc(C(F)(F)F)c(S(C)(=O)=O)c1C (stereo not shown) [Compound No. 7-145, 1-[(ethoxycarbonyl)oxy]ethyl-2-methyl-N-(5-methyl-1,3,4-oxadiazol-2-yl)-3-(methylsulfonyl)-4-(trifluoromethyl)benzenecarboximidate]
≥ 80%: pest or weed control at 320 g/ha [1] | pest or weed control at 320 g/ha [2] | pest or weed control at 80 g/ha [3] | pest or weed control at 80 g/ha [4]

CCOC(=O)OC(C)OC(=Nc1nnc(C)o1)c1ccc(C(F)(F)F)c([S+](C)[O-])c1Cl (stereo not shown) [Compound No. 7-385, 1-[(ethoxycarbonyl)oxy]ethyl-2-chloro-N-(5-methyl-1,3,4-oxadiazol-2-yl)-3-(methylsulfinyl)-4-(trifluoromethyl)benzenecarboximidate]
≥ 80%: pest or weed control at 320 g/ha [1] | pest or weed control at 320 g/ha [2] | pest or weed control at 80 g/ha [3] | pest or weed control at 80 g/ha [4]
90%: Herbicidal activity against ALOMY [5]

Cc1nnc(N=C(OC(C)OC(=O)OC2CCCCC2)c2ccc(C(F)(F)F)c([S+](C)[O-])c2Cl)o1 (stereo not shown) [Compound No. 9-385, 1-{[(cyclohexyloxy)carbonyl]oxy}ethyl-2-chloro-N-(5-methyl-1,3,4-oxadiazol-2-yl)-3-(methylsulfinyl)-4-(trifluoromethyl)benzenecarboximidate]
90%: Herbicidal activity against ALOMY [5]
≥ 80%: pest or weed control at 320 g/ha [1] | pest or weed control at 320 g/ha [2] | pest or weed control at 80 g/ha [3] | pest or weed control at 80 g/ha [4]
